In patent US20200375987A1, “METALLO-BETA-LACTAMASE INHIBITORS AND METHODS OF USE THEREOF” (priority 2018, published 2020):

Legend:
[1] = target: VIM-2 (Escherichia coli, UniProt Q5U7L7); experiment: Enzyme activity: determination of IC50 (VIM-2); assay type: biochemical; conditions: read-out: VIM2 IC50
[2] = system: Escherichia coli expressing NDM-1 (CLB30016); experiment: Antibiotic potentiation activity: synergistic concentration (MITC95) with imipenem; assay type: cell-based; conditions: imipenem 1 μg/mL; lowest concentration inhibiting 95% of growth; 35° C., 22-24 hours
Summary of the method: (§1)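 Clinical MBL-expressing strains diluted into 1.1× CAMHB were incubated with compound plus imipenem at 1 μg/mL for 22–24 h at 35 °C, then absorbance was read. MITC95 is the lowest compound concentration giving 95% growth inhibition in the presence of imipenem.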

[3] = system: Serratia marcescens expressing IMP-1 (CL5741); experiment: as above; assay type: cell-based; conditions: imipenem 1 μg/mL; lowest concentration inhibiting 95% of growth; 35° C., 22-24 hours
Summary of the method: as §1

[4] = system: Klebsiella pneumoniae expressing VIM-1 (IHMA599644); experiment: as above; assay type: cell-based; conditions: imipenem 1 μg/mL; lowest concentration inhibiting 95% of growth; 35° C., 22-24 hours
Summary of the method: as §1

[5] = target: IMP-1 (Serratia marcescens, UniProt P52699); experiment: Enzyme activity: determination of IC50, fluorescence assay with CCF2-FA substrate (IMP-1); assay type: biochemical; conditions: 2 pM enzyme, 1.25 μM CCF2-FA, 2 hours at 25° C.; read-out: IMP1 IC50
Chain of IMP-1 (P52699 19-246, looked up, species assumed): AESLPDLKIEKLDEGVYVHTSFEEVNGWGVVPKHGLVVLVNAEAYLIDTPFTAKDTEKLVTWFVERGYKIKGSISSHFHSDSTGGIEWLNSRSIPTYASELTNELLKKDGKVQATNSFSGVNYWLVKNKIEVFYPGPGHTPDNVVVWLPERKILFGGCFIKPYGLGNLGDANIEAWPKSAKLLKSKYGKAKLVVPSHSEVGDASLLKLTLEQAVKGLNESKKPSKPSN
Summary of the method: (§2)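 Enzyme (NDM-1 1 pM, IMP-1 2 pM, VIM-1 30 pM final) and 1.25 μM CCF2-FA incubated with inhibitor (20 to 0.00063 μM) for 2 h at 25° C in 100 mM KH2PO4 pH 7, 0.005% Tween-20, 10 μM ZnSO4. Fluorescence read at ex 405/em 460 nm; IC50 by 4-parameter fit.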

[6] = system: P. aeruginosa MB9798 (efflux WT, IMP-1); experiment: Efflux: concentration of MBL inhibitor restoring susceptibility to imipenem (MITC95), efflux+ strain; assay type: cell-based, Pseudomonas aeruginosa; conditions: imipenem at 2 μg/mL in the presence of a class A, C, D serine β-lactamase inhibitor closely related to relebactam
Summary of the method: (§3)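 Isogenic P. aeruginosa PAO1 strains, efflux+ and efflux−, transformed with IMP-1 plasmid, were tested by microbroth MIC with fixed imipenem, usually at CLSI breakpoint, plus fixed class A/C β-lactamase inhibitor against AmpC. MBL inhibitor was serially titrated; the concentration restoring susceptibility was recorded.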

[7] = target: NDM-1 (Klebsiella pneumoniae, UniProt C7C422); experiment: Enzyme activity: determination of IC50, fluorescence assay with CCF2-FA substrate (NDM-1); assay type: biochemical; conditions: 1 pM enzyme, 1.25 μM CCF2-FA, 2 hours at 25° C.; read-out: NDM1 IC50
Chain of NDM-1 (C7C422 29-270, looked up, species assumed): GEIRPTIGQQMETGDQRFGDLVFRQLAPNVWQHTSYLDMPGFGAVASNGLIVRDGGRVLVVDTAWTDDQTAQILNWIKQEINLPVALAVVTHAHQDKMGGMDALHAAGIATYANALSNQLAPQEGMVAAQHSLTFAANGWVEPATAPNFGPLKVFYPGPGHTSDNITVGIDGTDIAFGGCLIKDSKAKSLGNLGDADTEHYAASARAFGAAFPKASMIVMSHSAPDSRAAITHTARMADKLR
Summary of the method: as §2

[8] = target: VIM-1 (Pseudomonas aeruginosa, UniProt A0A0F7KYQ8); experiment: Enzyme activity: determination of IC50, fluorescence assay with CCF2-FA substrate (VIM-1); assay type: biochemical; conditions: 30 pM enzyme, 1.25 μM CCF2-FA, 2 hours at 25° C.; read-out: VIM1 IC50
Summary of the method: as §2

[9] = system: P. aeruginosa MB9799 (efflux mutant, IMP-1); experiment: Efflux: concentration of MBL inhibitor restoring susceptibility to imipenem (MITC95), efflux− strain; assay type: cell-based, Pseudomonas aeruginosa; conditions: imipenem at 2 μg/mL in the presence of a class A, C, D serine β-lactamase inhibitor closely related to relebactam
Summary of the method: as §3

SMILES	IC50 [1]	CLB30016 E.coli MITC95 NDM [2]	CL5741 S.marcescens MITC95 uM IMP [3]	IHMA599644 K.pneumoniae MITC95 uM VIM [4]	IC50 [5]	MB9798 MITC95 P. aeruginosa Efflux WT [6]	IC50 [7]	IC50 [8]	MB9799 MITC95 P. aeruginosa Efflux Mutant [9]
CNC(=O)c1nsc2c1CCN(c1ccc(S(=O)(=O)N[C@@H]3CCNC3)c(S(N)(=O)=O)c1-c1nnn[nH]1)C2 [Example 28, N-methyl-6-{4-[(3R)-pyrrolidin-3-ylsulfamoyl]-3-sulfamoyl-2-(1H-tetrazol-5-yl)phenyl}-4,5,6,7-tetrahydroisothiazolo[5,4-c]pyridine-3-carboxamide]	0.48 nM	0.78 µM	1.56 µM	6.25 µM	0.28 nM	12.50 µM	0.21 nM	0.15 nM	3.13 µM
Nc1nc2c(s1)CN(c1ccc(S(=O)(=O)N[C@@H]3CCNC3)c(S(N)(=O)=O)c1-c1nnn[nH]1)CC2 [Example 29, 4-(2-amino-6,7-dihydro[1,3]thiazolo[5,4-c]pyridin-5(4H)-yl)-N1-[(3R)-pyrrolidin-3-yl]-3-(1H-tetrazol-5-yl)benzene-1,2-disulfonamide]	32.8 nM	1.56 µM	1.56 µM	12.50 µM	7.11 nM	25.00 µM	6.28 nM	8.27 nM	0.78 µM
NS(=O)(=O)c1c(S(=O)(=O)N[C@@H]2CCNC2)ccc(N2CCc3[nH]ncc3C2)c1-c1nnn[nH]1 [Example 30, N1-[(3R)-pyrrolidin-3-yl]-4-(1,4,6,7-tetrahydro-5H-pyrazolo[4,3-c]pyridin-5-yl)-3-(1H-tetrazol-5-yl)benzene-1,2-disulfonamide]	0.98 nM	0.78 µM	1.56 µM	6.25 µM	1.11 nM	6.25 µM	0.19 nM	0.25 nM	1.56 µM
NS(=O)(=O)c1c(S(=O)(=O)N[C@@H]2CCNC2)ccc(N2CCc3[nH]cnc3C2)c1-c1nnn[nH]1 [Example 31, N1-[(3R)-pyrrolidin-3-yl]-4-(1,4,6,7-tetrahydro-5H-imidazo[4,5-c]pyridin-5-yl)-3-(1H-tetrazol-5-yl)benzene-1,2-disulfonamide]	3.3 nM	0.20 µM	0.78 µM	3.13 µM	7 nM	3.13 µM	1.13 nM	0.59 nM	0.78 µM
NS(=O)(=O)c1c(S(=O)(=O)N[C@@H]2CCNC2)ccc(N2CCc3cccnc32)c1-c1nnn[nH]1 [Example 32, 4-(2,3-dihydro-1H-pyrrolo[2,3-b]pyridin-1-yl)-N1-[(3R)-pyrrolidin-3-yl]-3-(1H-tetrazol-5-yl)benzene-1,2-disulfonamide]	0.39 nM	1.56 µM	1.56 µM	3.13 µM	1.14 nM	3.13 µM	0.21 nM	0.17 nM	1.56 µM
NS(=O)(=O)c1c(S(=O)(=O)N[C@@H]2CCNC2)ccc(N2CCc3ccncc32)c1-c1nnn[nH]1 [Example 33, 4-(2,3-dihydro-1H-pyrrolo[2,3-c]pyridin-1-yl)-N1-[(3R)-pyrrolidin-3-yl]-3-(1H-tetrazol-5-yl)benzene-1,2-disulfonamide]	0.72 nM	1.56 µM	3.13 µM	3.13 µM	1.73 nM	6.25 µM	0.3 nM	0.26 nM	1.56 µM
NS(=O)(=O)c1c(S(=O)(=O)N[C@@H]2CCNC2)ccc(N2CCc3ncccc32)c1-c1nnn[nH]1 [Example 34, 4-(2,3-dihydro-1H-pyrrolo[3,2-b]pyridin-1-yl)-N1-[(3R)-pyrrolidin-3-yl]-3-(1H-tetrazol-5-yl)benzene-1,2-disulfonamide]	0.81 nM	0.39 µM	1.56 µM	3.13 µM	5.21 nM	12.50 µM	0.29 nM	0.25 nM	1.56 µM
NS(=O)(=O)c1c(S(=O)(=O)N[C@@H]2CCNC2)ccc(N2CCCc3ccc(CCO)nc32)c1-c1nnn[nH]1 [Example 35, 4-[7-(2-hydroxyethyl)-3,4-dihydro-1,8-naphthyridin-1(2H)-yl]-N1-[(3R)-pyrrolidin-3-yl]-3-(1H-tetrazol-5-yl)benzene-1,2-disulfonamide]	5.59 nM	0.78 µM	1.56 µM	6.25 µM	4.68 nM	50.00 µM	4.34 nM	5.78 nM	0.78 µM
NC[C@@H](O)CNS(=O)(=O)c1ccc(N2CCc3cccnc32)c(-c2nn[nH]n2)c1S(N)(=O)=O [Example 36, (R)—N1-(3-amino-2-hydroxypropyl)-4-(2,3-dihydro-1H-pyrrolo [2,3-b]pyridin-1-yl)-3-(2H-tetrazol-5-yl)benzene-1,2-disulfonamide]	0.49 nM	1.56 µM	1.56 µM	3.13 µM	1.4 nM	12.50 µM	0.36 nM	0.27 nM	0.78 µM
NC[C@@H](O)CS(=O)(=O)c1ccc(N2CCCn3ccnc32)c(-c2nn[nH]n2)c1S(N)(=O)=O [Example 37, (R)-6-((3-amino-2-hydroxypropyl)sulfonyl)-3-(6,7-dihydroimidazo[1,2-a]pyrimidin-8(5H)-yl)-2-(2H-tetrazol-5-yl)benzenesulfonamide]	4.44 nM	0.20 µM	0.78 µM	1.56 µM	5.6 nM	3.13 µM	4.31 nM	2.22 nM	0.78 µM
NC[C@@H](O)CNS(=O)(=O)c1ccc(N2CCC(CO)n3ccnc32)c(-c2nn[nH]n2)c1S(N)(=O)=O (stereo partly drawn) [Example 38, N1-((R)-3-amino-2-hydroxypropyl)-4-(5-(hydroxymethyl)-6,7-dihydroimidazo[1,2-a]pyrimidin-8(5H)-yl)-3-(2H-tetrazol-5-yl)benzene-1,2-disulfonamide]	2.42 nM	0.20 µM	0.78 µM	1.56 µM	4.17 nM	1.56 µM	0.64 nM	0.4 nM	0.78 µM
NC[C@@H](O)CNS(=O)(=O)c1ccc(N2CC[C@@H](CO)n3ccnc32)c(-c2nn[nH]n2)c1S(N)(=O)=O [Example 39, N1-((R)-3-amino-2-hydroxypropyl)-4-((S)-5-(hydroxymethyl)-6,7-dihydroimidazo[1,2-a]pyrimidin-8(5H)-yl)-3-(2H-tetrazol-5-yl)benzene-1,2-disulfonamide]	14.3 nM	0.29 µM	0.78 µM	1.56 µM	6.52 nM	2.34 µM	0.89 nM	1.62 nM	1.17 µM
NC[C@@H](O)CNS(=O)(=O)c1ccc(N2CC[C@H](CO)n3ccnc32)c(-c2nn[nH]n2)c1S(N)(=O)=O [Example 40, N1-((R)-3-amino-2-hydroxypropyl)-4-((R)-5-(hydroxymethyl)-6,7-dihydroimidazo[1,2-a]pyrimidin-8(5H)-yl)-3-(2H-tetrazol-5-yl)benzene-1,2-disulfonamide]	2.09 nM	0.10 µM	0.39 µM	1.56 µM	5 nM	1.56 µM	1.15 nM	0.27 nM	0.78 µM
